Measured values: US10729691B2, “Treatment of infectious diseases with glucose uptake inhibitors” (Kadmon Corporation LLC, priority 2015, dated 2020)

How the values were obtained:
[1] = system: P. falciparum-infected RBCs; assay: Glycolysis IC50 / lactate excretion assay in P. falciparum-infected RBCs; assay type: cell-based; conditions: Plasmodium falciparum
Method: The cultures were harvested and DNA quantitated using the standard Sybr Green I fluorescence assay. […] The culture medium was harvested and extracellular lactic acid was quantified by LC-MS.
P. falciparum (HB-3 strain) cultures were maintained in standard culture conditions. […] Parasites were grown in O+ donor blood, 2% hematocrit.
Parasite cultures were seeded in 96-well plates (1% hematocrit, 1-2% starting parasitemia, 100 μL total volume) with varying concentrations of the test compounds in a final concentration of 0.1% DMSO. Plates were cultured for 48 hours before harvesting the culture medium for LC-MS analysis. At harvest, thin smears were taken and examined microscopically to observe any alterations in parasite morphology.
Culture medium samples were diluted in 9 volumes of methanol containing U-^13C-glucose and 1-^13C-lactate (final concentration 0.25 mM each). The samples were clarified by centrifugation at 13,000 RCF for 10 minutes. […] Mobile phase A was acetonitrile, and mobile phase B was 20 mM ammonium acetate (pH 9.4).
(§1) The sample was analyzed on an Exactive mass spectrometer (Thermo Scientific) to determine the chromatographic peak areas the analytes and internal standards. Glucose and lactate were quantified by taking the ratio of the unlabeled peak area to the area of the isotope-labeled standard.

[2] = system: P. falciparum (3D7 strain)-infected erythrocyte cultures; assay: LC-MS metabolomics analysis of ATP levels in infected erythrocyte cultures; assay type: cell-based, Plasmodium falciparum; conditions: 2.5 uM compound
Method: The ATP levels of the infected cells are substantially depleted within 15 minutes of compound exposure and remain so for the duration of the experiment.
Cellular metabolite levels were determined in cultures that had been enriched for late stage (trophozoite/schizont)-infected erythrocytes by centrifuging a bulk culture suspension over a two-step Percoll gradient (65%/35% Percoll) at 1,500 RCF for 15 minutes and collecting the parasitized erythrocytes at the interface. 10 uL of packed cells were pelleted from the resulting cultures by centrifugation (500 RCF, 5 minutes), the culture medium removed by aspiration, and the cells extracted with 1.2 mL of 80% methanol/20% on dry ice. The first extraction was collected as the supernatant after centrifugation (1,000 RCF, 5 minutes) and the pellet extracted again with 0.3 mL of 80% methanol/20%. The two extracts were pooled, dried under nitrogen and resuspended in 200 uL of water prior to LC-MS analysis. […]
as §1

IC50 [1]	Structure (SMILES)	time until ATP levels of the infected cells are substantially depleted [2]
101 to 250 nM	CC(C)NC(=O)COc1cccc(-c2nc(Nc3ccc4[nH]ncc4c3)c3sccc3n2)c1 [Example 3]	≤ 15 min
101 to 250 nM	O=C(COc1cccc(-c2nc3c(c(Nc4ccc(-c5cn[nH]c5)cc4)n2)COCC3)c1)NC1CCC1 [Example 52, 2-(3-(4-((4-(1H-pyrazol-4-yl)phenyl)amino)-7,8-dihydro-5H-pyrano[4,3-d]pyrimidin-2-yl)phenoxy)-N-cyclobutylacetamide]	–
